Measured values reported in US8895502B2, “β2-glycoprotein I peptide inhibitors” (Kansas State University Research Foundation, priority 2010, dated 2014).
Ends that are not written are not given here.

Tested on: VEGF
Experiment: Spontaneous breast cancer model, VEGF RNA expression
Format: in vivo, mouse
Conditions: mammary tumors, compared to saline treated animals
Procedure: mRNA was isolated from the tumor samples that were homogenized in Trizol. The concentration of mRNA was evaluated by nanodrop and the purity by bioanalyzer. cDNA was then synthesized using random primers with the Quanta cDNA synthesis kit. RT-PCR was then performed on a 1:100 dilution of cDNA for 18s rRNA. After 3 min denaturing at 95° C., the real-time PCR reaction consisted of 50 cycles (of 10 sec at 95° C., 20 sec at 58° C., and 10 sec at 72° C.), followed by a melt curve increasing at intervals of 0.5° C. from 60° C. to 95° C. RT-PCR was also performed on cDNA samples for CD31 and VEGF which are endothelial markers of angiogenesis. After subtracting 18s Ct values, peptide treated dCt values were normalized to saline treated samples and fold change calculated as ddCt. Primers were obtained from Integrated DNA Technology (Coraville, Iowa) and sequences are in the table below.

H-IHFYSKNKEKKSSYTVEAHSRDGTI-OH [peptide 296Cys-Ser]
RNA expression of VEGF: significantly decreased
